In PMC10224356, “Trisubstituted 1,3,5-Triazines as Histamine H4 Receptor Antagonists with Promising Activity In Vivo” (Molecules, 2023):
Values joined by “and” are separate entries in the source; they are usually repeats but may differ in a detail not shown here. Identical values can stand only once.

Columns and labels:
hH4R [1] = target: T1, hH4R (Homo sapiens, UniProt Q9H3N8); assay: cAMP accumulation assay (LANCE Ultra cAMP, CHO-K1 cells stably expressing hH4R); format: cell-based; set-up: expressed in transfected cells; details: for IC50: forskolin 10 µM, histamine 140 nM, CHO-K1 hH4R cells, read-out: cAMP hH4R IC50 ± SEM; for Kb: calculated from IC50 by Leff–Dougall variant of Cheng–Prusoff equation, read-out: pKb cAMP ± SEM (converted)
Description: Intrinsic activity via the Gα subunit was measured using a LANCE Ultra cAMP detection kit and CHO-K1 cells stably expressing hH4R. Adenyl cyclase was stimulated by forskolin (10 µM).
Intrinsic activity in G protein-dependent pathway was measured with homogenous TR-FRET immunoassay, using LANCE Ultra cAMP kit and CHO-K1 H4R cell line or γ-irradiated recombinant CHO-K1 H4R cells (all from PerkinElmer). […] If the CHO-K1 H4R cell line was used it had been cultivated in DMEM/F12 10% FBS 400 µg/mL geneticin and passaged three times a week. […] The antagonist activity was measured in a white, opaque, 384-well microplate (PerkinElmer) with a total volume of 20 µL. […] After incubation, 5 µL of europium chelate-labelled cAMP tracer and 5 µl of ULight-labelled anti-cAMP mAb working solutions were added, mixed and incubated for 1 h. TR-FRET signal was read using a microplate reader (PerkinElmer, Waltham, MA, USA).

hH4R [2] = target: T1, hH4R; assay: β-arrestin recruitment assay (LiveBLAzer, Tango-H4-bla U2OS cells); format: cell-based; set-up: expressed in transfected cells; host or cells: Tango-H4-bla U2OS cells; details: for IC50 / β-arrestin hH4R % of max. Antagonist Activity at 10 µM: antagonist mode; for IC50: histamine 500 nM (EC80), Tango-H4-bla U2OS cells, read-out: β-arrestin hH4R IC50 ± SEM; for Kb: calculated from IC50 by Leff–Dougall variant of Cheng–Prusoff equation, read-out: pKb β-arrestin ± SEM (converted)
Description: Compounds were tested using LiveBLAzer^TM assay and Tango-H4-bla U2OS cells, allowing the estimation of the percentage of β-arrestin recruitment in response to tested treatments.
All used media and reagents except DMSO and tested compounds were purchased from ThermoFisher Scientific, Waltham, MA, USA. DMSO was from CarlRoth (Karlsruhe, Germany) and histamine was from Sigma Aldrich (Darmstadt, Germany). […] The day before the experiment cells were collected from the culture flask with trypsin and seeded in 384 well black-wall, clear-bottom plate (PerkinElmer, Waltham, MA, USA) in concentration 10,000 cells/well in FreeStyle medium. After 24 h of incubation, the cells were checked under the microscope and the dilutions of tested compounds were prepared and added to the wells. In agonist mode compounds were added to the wells and plates were placed in the incubator (HERAcell240, Heraeus, Hanau, Germany) for 16 h. In antagonist mode, first, the compounds were added to the wells, plates were incubated for 30 min, then histamine solution (corresponding to EC80—500 nM) was added and plates were put in the incubator for 16 h. After this time β-lactamase substrate mixture was prepared and added to wells (8 µL/well). Cells were incubated for 2 h at room temperature in the dark then the signal was read using an EnSpire microplate reader (PerkinElmer, Waltham, MA, USA). Drawing of dose-dependent curves and IC50 calculation for compounds were made using GraphPad Prism 6 (GraphPad Software, San Diego, CA, USA).

hH4R [3] = target: T1, hH4R; assay: cAMP accumulation assay (LANCE Ultra cAMP, CHO-K1 cells stably expressing hH4R); format: cell-based; set-up: expressed in transfected cells; details: antagonist mode
[4] = target: T2, human histamine H4 receptor (Homo sapiens, UniProt Q9H3N8); assay: [3H]histamine displacement assay, membranes of Sf9 cells expressing hH4R with Gαi2 and Gβ1γ2; format: binding; details: for Ki: Sf9 membranes, mean within 95% CI
T2 construct: made in house; host or cells: Sf9 cells (membrane preparations)
Description: The affinity of compounds 2–20 for hH4R was evaluated in a binding assay as previously described. [^3H]Histamine was used as a radioligand and hH4R was expressed in Sf9 cells with G protein Gαi2 and Gβ1γ2 subunits. The pharmacological results represented as Ki values are listed in Table 1 (for alicyclic derivatives) and Table 2 (for aliphatic derivatives). […] Results depended on the substituent in the four positions of a triazine (a main structure).
Affinities of all triazine derivatives were determined in a [^3H] histamine (f.c. 10 nM) displacement assay using membrane preparations from Sf9 cells expressing human H4R and co-expressed with Gαi2 and Gβ1γ2 subunits as described previously. Nonspecific binding was determined in the presence of unlabelled JNJ7777120 ([…]).

T1 sequence (Q9H3N8 whole entry): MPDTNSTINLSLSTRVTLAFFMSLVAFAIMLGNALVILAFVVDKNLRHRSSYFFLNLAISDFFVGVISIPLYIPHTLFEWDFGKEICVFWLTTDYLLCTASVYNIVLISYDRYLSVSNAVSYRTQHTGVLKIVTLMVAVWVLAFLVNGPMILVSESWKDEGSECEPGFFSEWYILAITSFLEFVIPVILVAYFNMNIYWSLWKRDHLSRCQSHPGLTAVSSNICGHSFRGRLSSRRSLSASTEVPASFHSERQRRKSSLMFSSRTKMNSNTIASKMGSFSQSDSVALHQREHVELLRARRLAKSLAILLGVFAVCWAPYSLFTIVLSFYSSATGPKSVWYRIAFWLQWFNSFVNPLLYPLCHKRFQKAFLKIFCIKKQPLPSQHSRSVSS
T2 sequence (Q9H3N8 whole entry): as above

SMILES	IC50 (hH4R [1]; antagonist mode)	Kb (hH4R [1])	IC50 (hH4R [2])	β-arrestin hH4R % of max. Antagonist Activity at 10 µM (hH4R [2])	Kb (hH4R [2])	cAMP hH4R % of max. Antagonist Activity at 10 µM (hH4R [3])	Ki [4]	melting point	cAMP hH4R % of max. Antagonist Activity at 10 µM (hH4R [1]; at 10 µM, antagonist mode)	inhibition at 1 µM ([4]; per cent of inhibition at 1 μM, read-out: hH4R inh. at 1 μM)
CN1CCN(c2nc(N)nc(CC3CCCCC3)n2)CC1 [TR-AF-49]	271 ± 11 nM	95.5 nM	68 ± 7 nM	99%	11.2 nM	98%				
C=CC(C)Cc1nc(N)nc(N2CCN(C)CC2)n1 (stereo not shown) [Compound 18, 4-(2-Methylbut-3-enyl)-6-(4-methylpiperazin-1-yl)-1,3,5-triazin-2-amine]	188 ± 45 nM	64.6 nM	66.6 ± 3 nM	101%	11 nM	104%	262 nM	113 to 115 °C		
S=C(NC1CCCCC1)N1CCC(c2cnc[nH]2)CC1 [Thioperamide, reference compound]				102%					111%	
CCCC(C)c1nc(N)nc(N2CCN(C)CC2)n1 (stereo not shown) [Compound 11, 4-(4-Methylpiperazin-1-yl)-6-(pentan-2-yl)-1,3,5-triazin-2-amine]	640 ± 49 nM	224 nM	97 ± 16 nM	97%	15.8 nM	100%	353 nM	138 to 140 °C		
CN1CCN(c2nc(N)nc(CC3C=CCC3)n2)CC1 (stereo not shown) [Compound 7, 4-(Cyclopent-2-enylmethyl)-6-(4-methylpiperazin-1-yl)-1,3,5-triazin-2-amine]	33 ± 2 nM	11.5 nM	14 ± 1 nM	103%	2.34 nM	104%	96 nM	166 to 169 °C		
CCC(C)Cc1nc(N)nc(N2CCN(C)CC2)n1 (stereo not shown) [Compound 12, 4-(2-Methylbutyl)-6-(4-methylpiperazin-1-yl)-1,3,5-triazin-2-amine]	132 ± 9 nM	46.8 nM	38 ± 7 nM	100%	6.17 nM	111%	321 nM	115 to 116 °C		
CN1CCN(c2nc(N)nc(CC34CC5CC(CC(C5)C3)C4)n2)CC1 [Compound 9, 4-(1-Adamantylmethyl)-6-(4-methylpiperazin-1-yl)-1,3,5-triazin-2-amine]								200 to 201 °C		43%
CN1CCN(c2nc(N)nc(C3CCC3)n2)CC1 [Compound 3, 4-Cyclobutyl-6-(4-methylpiperazin-1-yl)-1,3,5-triazin-2-amine]	104 ± 17 nM	37.2 nM	100 ± 15 nM	87%	16.6 nM	109%	~200 nM and 200 nM	127 to 132 °C		
C=CCC(C)c1nc(N)nc(N2CCN(C)CC2)n1 (stereo not shown) [Compound 17, 4-(4-Methylpiperazin-1-yl)-6-(pent-4-en-2yl)-1,3,5-triazin-2-amine]	721 ± 70 nM	257 nM	744 ± 139 nM	92%	117 nM	94%	263 nM	134 to 136 °C		
